Target: Mu-type opioid receptor (Homo sapiens) (UniProt P35372)
Experiment: […] [35S]- GTPgammaS on Opioid receptor mu 1 in monkey brain membranes
Format: cell membranes
Details: Cercopithecidae, Membrane, target entry is the homologue from another species

Chain of Mu-type opioid receptor (Homo sapiens) (P35372 whole entry): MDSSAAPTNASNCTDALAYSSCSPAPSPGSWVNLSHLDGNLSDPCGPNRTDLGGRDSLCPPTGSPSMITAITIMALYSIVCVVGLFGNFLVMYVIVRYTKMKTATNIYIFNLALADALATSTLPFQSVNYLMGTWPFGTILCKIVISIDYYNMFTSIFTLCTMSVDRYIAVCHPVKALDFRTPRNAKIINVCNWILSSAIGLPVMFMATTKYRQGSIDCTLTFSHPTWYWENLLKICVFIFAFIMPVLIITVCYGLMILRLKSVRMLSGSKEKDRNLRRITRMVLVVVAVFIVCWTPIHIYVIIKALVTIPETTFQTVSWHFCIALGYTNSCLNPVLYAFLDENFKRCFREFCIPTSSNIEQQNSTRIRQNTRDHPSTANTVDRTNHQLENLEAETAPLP

| SMILES | Ke |
| --- | --- |
| O=C(/C=C/c1ccc(Cl)cc1)NC12CCC(=O)C3Oc4cccc5c4[C@@]31CCN(CC1CC1)[C@@H]2C5 (stereo partly drawn) | 0.28 nM |
| COc1ccc2c3c1O[C@H]1C(=O)CC[C@@]4(NC(=O)/C=C/c5ccc(Cl)cc5)[C@@H](C2)N(CC2CC2)CC[C@]314 | 6.37 nM |
| O=C(/C=C/c1ccc(Cl)cc1)N[C@@]12CCC(=O)[C@@H]3Oc4c(O)ccc5c4[C@@]31CCN(CC1CC1)[C@@H]2C5 | 0.37 nM |
